Measurements taken from EP0732399A2 (CEPHALON, INC., priority 1990, dated 1991).
“And” between values parts separate entries of the source, which are not always exact repeats. Equal values may be shown once. “Also recorded” adds a separate entry of the source. Read-outs that look alike come from different tables or passages of the source. Blank lines part the entries; values can stand above or below the compound they belong to. Square brackets hold non-standard residues; d marks the D form. Peptide text beside a SMILES is read from it. * marks the point of attachment. Sta = CC(C)C[C@H](N)[C@@H](O)CC(=O)O; Isovaleryl = CC(C)CC(=O)*; MeOSuc = COC(=O)CCC(=O)*; CH2Cl = ClC*

Assays:
chymase [1] = target: T1, chymase (Rattus norvegicus, UniProt P09650); assay: Inhibition of purified brain chymase (pNa substrate hydrolysis); assay type: biochemical
T1 construct: Starting from 18g rat brain, approximately 10µg homogeneous chymase was obtained; from tissue; host or cells: rat forebrain (5-7 day old pups)
T1 sequence (P09650 21-260): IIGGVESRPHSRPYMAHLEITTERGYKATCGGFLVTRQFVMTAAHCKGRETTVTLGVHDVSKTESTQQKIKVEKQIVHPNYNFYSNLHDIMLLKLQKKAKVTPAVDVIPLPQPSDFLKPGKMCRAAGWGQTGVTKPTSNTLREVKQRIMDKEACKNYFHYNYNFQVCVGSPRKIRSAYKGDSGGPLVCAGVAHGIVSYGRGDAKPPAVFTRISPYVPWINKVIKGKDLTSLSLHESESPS
Protocol: (§1) During the various protease purification steps, protease activity of all fractions was measured using chromogenic or fluorogenic peptide analogs as substrates. Other methods are available, known to those skilled in the art. One specific example of an activity measurement is described here. Protease activity assays were performed in 96 well microtiter plates, in a total volume of 0.2 mls. Substrates were prepared as 10-20X concentrated stock solutions in DMSO. Therefore, each reaction contained 5-10% DMSO. Reactions were initiated by addition of protease-containing samples to wells already containing substrates, and were maintained at 37°C. Control wells received either protease without substrate, or substrate without protease. The release of reporter moities by proteolytic cleavage was followed as a function of time by either spectrophotometry (e.g., for pNa substrates, change in absorbance with time at 405 nm) or fluorimetry (e.g., for AMC substrates, change in fluorescence with time using excitation at 390 nm and emission at 460 nm). Maximum velocity of reactions was determined while substrate hydrolysis increased linearly as a function of time.

[2] = test system: human brain multicatalytic protease; assay type: biochemical; settings: qualitative, no concentration stated
Protocol: as §1
Human cerebral cortex (courtesy National Neurological Research Bank, Los Angeles, CA.) was obtained at autopsy and stored at -70°C until use. All procedures were conducted at 4 °C unless noted otherwise. […] Triton X-100 was added to 0.5%, the homogenate was stirred for 1 hr., then centrifuged at 40,000 x g for 1 hr. The supernatant, containing the multicatalytic protease, was dialyzed against 20 mM Tris-HCl (pH 8.0),1% glycerol. The following day, the dialysate was loaded on a column (150 ml bed volume) of DEAE-Sepharose Fast Flow (Pharmacia, Piscataway, N.J.) equilibrated in the dialysis buffer. Unbound material was removed with ∼300 mls dialysis buffer, then bound material was eluted with a linear NaCl gradient from 0 mM to 400 mM (1.5 liters total). Fractions of 15 ml were collected and assayed for multicatalytic protease activity (see below).

chymase [3] = assay: Purified chymase; settings: rat, room temperature, up to 48 hrs
cathepsin G [4] = assay: cathepsin G; settings: 37°C
chymotrypsin [5] = assay: chymotrypsin; settings: 37°C
chymase [6] = assay: purified rat brain chymase; settings: 37°C
[7] = high salt extract preparation (1 M MgCl2) of human brain samples
chymotrypsin [8] = assay: chymotrypsin (Fig. 6 panel B); settings: 37°C
chymase [9] = assay: human brain chymase purified from human cerebral cortex; settings: 37°C
multicatalytic protease [10] = assay: multicatalytic protease purified from human brain; settings: 37°C
cathepsin G [11] = assay: cathepsin G (Fig. 6 panel C); settings: 37°C
human brain chymase = target: T2, human brain chymase (Homo sapiens, UniProt P23946)
T2 sequence (P23946 22-247): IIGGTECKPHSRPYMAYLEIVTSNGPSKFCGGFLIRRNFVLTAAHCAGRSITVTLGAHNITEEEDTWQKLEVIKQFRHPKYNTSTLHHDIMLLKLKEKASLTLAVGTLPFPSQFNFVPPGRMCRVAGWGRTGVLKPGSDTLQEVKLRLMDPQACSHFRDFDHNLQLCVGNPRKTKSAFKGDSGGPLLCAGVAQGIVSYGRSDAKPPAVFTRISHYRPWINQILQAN
Description: Samples obtained post-mortem from human cerebral cortex (courtesy of the National Neurological Research Bank) were fractionated as described above for preparation of rat brain chymase. […] Protease was further purified on a heparin-Sepharose column in a manner similar to purification of rat brain chymase. […] The enzyme bound to the column in 0.4 M NaCl and was eluted by increasing the NaCl concentration to 0.7-0.9 M.
Next, chymase was purified using a chymase inhibitor coupled to resin, lima bean trypsin inhibitor-agarose (Sigma, St. Louis, MO.). […] Chymase-containing fractions from the heparin eluate were pooled, concentrated to 10 ml, and loaded on a 1 ml bed volume of lima bean trypsin inhibitor-agarose. The column was washed with Hepes buffer containing 0.5 M NaCl (5 vol), then with water (5 vol). Chymase was eluted with 2 mM HCl, and was immediately neutralized with Tris-HCl (0.2 M final concentration, pH 8.0) containing 0.5 M NaCl.

chymase [12] = target: T1, chymase; assay: Substrate cleavage by brain chymase; assay type: biochemical
Protocol: as §1

chymotrypsin [13] = assay: Substrate cleavage by chymotrypsin; assay type: biochemical
Protocol: as §1
(§2) Contrary to expectation, not all chymotrypsin-like proteases were able to cleave MeOSuc-Glu-Val-Lys-Met-pNa (Figure 6; EVKM using the one letter amino acid code). […]

cathepsin G [14] = target: T3, cathepsin G (Homo sapiens, UniProt P08311); assay: Substrate cleavage by cathepsin G; assay type: biochemical
T3 sequence (P08311 21-255): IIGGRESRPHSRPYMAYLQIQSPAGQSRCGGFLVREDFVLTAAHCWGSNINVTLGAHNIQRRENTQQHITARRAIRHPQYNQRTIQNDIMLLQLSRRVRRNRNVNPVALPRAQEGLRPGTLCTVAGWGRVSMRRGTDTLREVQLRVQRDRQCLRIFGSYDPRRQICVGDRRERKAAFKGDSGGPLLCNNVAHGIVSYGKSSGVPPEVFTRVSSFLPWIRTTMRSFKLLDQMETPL
Protocol: as §1, §2

multicatalytic protease [15] = target: T4, multicatalytic protease (Homo sapiens, UniProt P28074); assay: Substrate cleavage by multicatalytic protease; assay type: biochemical
T4 construct: Human cerebral cortex (courtesy National Neurological Research Bank, Los Angeles, CA.) was obtained at autopsy; from tissue; host or cells: human cerebral cortex, post mortem
Protocol: as §1
Human cerebral cortex (courtesy National Neurological Research Bank, Los Angeles, CA.) was obtained at autopsy and stored at -70°C until use. All procedures were conducted at 4 °C unless noted otherwise. […]

Ki (chymase [1]; read-out: Ki): < 20 nM and 15 nM
Compound: COC(=O)CCC(=O)N[C@@H](CCC(=O)O)C(=O)N[C@H](C(=O)N[C@@H](CCCCN)C(=O)N[C@H](C=O)Cc1ccccc1)C(C)C [MeOSuc-Glu-Val-Lys-Phe-al, MeOSuc-Glu-Val-Lys-Phenylalaninal] (MeOSuc-EVKF-aldehyde)

cleaved bond (chymase [3]): Met596-Asp597, 45 minutes
Compound: Glu-Val-Lys-Met-Asp-Ala-Glu-Phe-Arg-His-Asp-Ser-Gly-Tyr-Glu-Val-His-His-Gln

cleaved bond (cathepsin G [4]): Met-pNa | cleaved bond (chymotrypsin [5]): Met-pNa | cleaved bond (chymase [6]): Met-pNa
Compound: MeOSuc-Ala-Ala-Pro-Met-pNa

cleaved bond [7]: Phe-pNa
Compound: MeOSuc-Ala-Ala-Pro-Phe-pNa

not cleaved (chymotrypsin [8]): essentially without effect | cleaved bond (chymase [9]): Met-pNa | cleaved bond (multicatalytic protease [10]): Met-pNa | cleaved bond (chymase [6]): Met-pNa | not cleaved (cathepsin G [11]): essentially without effect
Compound: MeOSuc-Glu-Val-Lys-Met-pNa

cleaved bond (chymase [6]): Phe-pNa
Compound: MeOSuc-Glu-Val-Lys-Phe-pNa

cleaved bond (chymase [9]): Phe-pNa | cleaved bond (chymase [6]): Phe-pNa
Compound: Suc-Ala-Ala-Pro-Phe-pNa

More lines, now with the values behind:

Compound: COC(=O)CCC(=O)N[C@@H](CCC(=O)O)C(=O)N[C@H](C(=O)N[C@@H](CCCCN)C(=O)N[C@@H](Cc1ccccc1)C(=O)CCl)C(C)C (MeOSuc-EVKF-CH2Cl)
Ki (chymase [1]; Ki): < 20 nM

Compound: CC(C)C[C@H](NC(=O)[C@@H](NC(=O)N[C@@H](Cc1ccccc1)C(=O)O)[C@@H]1CCN=C(N)N1)C(=O)N[C@H](C=O)Cc1ccccc1 [chymostatin]
inhibition of multicatalytic protease activity [2]: inhibition

Compound: CC(=O)N[C@@H](CC(C)C)C(=O)N[C@@H](CC(C)C)C(=O)N[C@H](C=O)CCCNC(=N)N [leupeptin]
inhibition of multicatalytic protease activity [2]: not

Compound: c1cnc2c(c1)ccc1cccnc12 [o-phenanthroline]
inhibition of multicatalytic protease activity [2]: not

Compound: CC(C)CC(=O)N[C@H](C(=O)N[C@H](C(=O)N[C@@H](CC(C)C)[C@@H](O)CC(=O)N[C@@H](C)C(=O)N[C@@H](CC(C)C)[C@@H](O)CC(=O)O)C(C)C)C(C)C [pepstatin] (Isovaleryl-VV[Sta]A[Sta]-OH)
inhibition of multicatalytic protease activity [2]: not

Compound: O=S(=O)(F)Cc1ccccc1 [phenylmethylsulfonylfluoride]
inhibition of multicatalytic protease activity [2]: not

Compound: methoxysuccinyl-glutamyl-valyl-lysyl-methionine-p-nitroanili de [MeOSuc-Glu-Val-Lys-Met-pNa]
substrate hydrolysis by human brain chymase (human brain chymase): hydrolyzed | substrate cleavage by chymase (chymase [12]): readily degraded | substrate cleavage by chymotrypsin (chymotrypsin [13]): essentially without effect | substrate cleavage by cathepsin G (cathepsin G [14]): essentially without effect | substrate cleavage by multicatalytic protease (multicatalytic protease [15]): readily degraded; also recorded: unusual ability to cleave
